Laboratory results taken from PubChem BioAssay AID1996.
≈ marks a conversion by molar mass, not a printed value.

Details: buffer; pH 7.4; 200.0 µM

Row | SMILES | solubility kinetic [µg/mL]
1 | COC(=O)c1sccc1NC(=O)Nc1ccc(OC)c(OC)c1 | > 50.5
2 | CCC(=O)N1CCN=C1SCc1c(F)cccc1Cl | 12.6 (≈ 41.9 µM)
3 | CCOC(=O)c1sc(=NC(=O)c2cccc(C)c2)n(C)c1C | 0.7 (≈ 2.2 µM)
4 | O=C(/C=C/c1ccccc1[N+](=O)[O-])c1ccc(F)cc1 | 4.5 (≈ 16.6 µM)
5 | O=C(/C=C/c1ccc2c(c1)OCO2)N1CCCCC1 | > 38.9
6 | NC(=O)C1CCN(C(=O)c2ccc(Oc3cc(Cl)cc(Cl)c3)o2)CC1 | 55.4 (≈ 145 µM)
7 | C/C=C/C(=O)OCC(=O)Nc1cccc(F)c1 | > 35.6
8 | COc1ccc(C2c3sc(=O)[nH]c3SCC2C(N)=O)cc1 (stereo unspecified) | 40 (≈ 124 µM)
9 | COc1ccccc1NC(=O)c1cc([N+](=O)[O-])ccc1N1CCOCC1 | 31.2 (≈ 87.3 µM)
10 | CCN(CC)CCNc1ccc(CO)c2sc3ccccc3c(=O)c12 | > 53.5
11 | CCCCC(CC)C1OCC(CN2CCCCC2)O1 (stereo unspecified) | 4.3 (≈ 16 µM)
12 | Cc1cccc(-n2c(C)cc(/C=C3\NC(=O)NC3=O)c2C)c1 | 1.8 (≈ 6.09 µM)
13 | CC(C)c1ccc(Nc2nc(Cl)nc(Cl)n2)cc1 | 28.5 (≈ 101 µM)
14 | CC(C)CN1CCN(Cc2cccc3c2OCO3)CC1CCO (stereo unspecified) | > 48.1
15 | Cc1ccc(S(=O)(=O)c2nc(-c3ccccc3Cl)oc2N(C)C2CCN(C)CC2)cc1 | > 69
16 | CCOC(=S)N/C(=N\S(C)(=O)=O)c1ccccc1 | > 43
17 | Cc1ccc(N(Cc2cc(=O)[nH]c3ccccc23)C(=O)C(C)C)c(C)c1 | 17.7 (≈ 50.8 µM)
18 | Cc1nc2ccsc2c(=O)n1-c1ccccc1Cl | > 41.5
19 | CN1CCC(N(C)C(=O)c2cccc(S(=O)(=O)N3CCc4ccccc43)c2)CC1 | > 62
20 | Cc1ncc([N+](=O)[O-])n1CC(=O)Nc1ccc(Br)cc1 | 9.9 (≈ 29.2 µM)
21 | Cc1csc(=Nc2ccccc2)n1CCCN1CCCC1=O | > 47.3
22 | Cc1ccc(C)c(S(=O)(=O)NC(C)C(=O)NCc2ccccn2)c1 (stereo unspecified) | > 52.1
23 | CCOC(=O)C1=C(C)Nc2nc3ccccc3n2C1c1ccc(O)cc1 (stereo unspecified) | < 0.2
24 | COC(=O)COc1ccc(S(=O)(=O)N2CCCCCC2)cc1 | 42.9 (≈ 131 µM)
25 | COc1cccc(C(=O)NCc2ccc3c(c2)OCO3)c1OC | > 47.3

Row | SMILES | solubility kinetic [µg/mL]
26 | CCCC(=O)Nc1nc(-c2ccc(Cl)s2)cs1 | 1.5 (≈ 5.23 µM)
27 | O=C(OCC(=O)N1CCCCC1)c1ccc(OC(F)(F)F)cc1 | 16.2 (≈ 48.9 µM)
28 | COC(=O)c1cn(Cc2ccc(C(F)(F)F)cc2)cc(F)c1=O | > 49.4
29 | CCOC(=O)Cc1csc(NC(=O)c2cc3ccccc3o2)n1 | 10.4 (≈ 31.5 µM)
30 | CC(=O)c1ccc(OC(=O)CCNC(=O)c2ccccc2)cc1 | 27.6 (≈ 88.6 µM)
31 | CCOC(=O)c1cc2c(cn1)[nH]c1ccccc12 | 7.5 (≈ 31.2 µM)
32 | Cc1ccc(C(=O)OCC(=O)NC(=O)Cc2ccccc2)c(O)c1 | 12 (≈ 36.7 µM)
33 | CC(=O)c1cccc(Nc2nc(-c3cccnc3)cs2)c1 | 0.9 (≈ 3.05 µM)
34 | O=C(NCC1CC1)c1ccccc1Cl | > 31.5
35 | O=S(=O)(c1ccc(=S)[nH]c1)N1CCOCC1 | 21.6 (≈ 83 µM)
36 | Cc1cc(C=O)c(C)n1-c1ccc2c(c1)OCO2 | 24.6 (≈ 101 µM)
37 | Cc1cc(NC(=O)Cn2c(=O)oc3ccccc32)no1 | 8.6 (≈ 31.5 µM)
38 | CC1(C)Cc2ccccc2C(NN=C2CCCC2)=N1 | > 38.3
39 | C[C@H](NS(=O)(=O)c1ccc(F)cc1)C(=O)OCC(=O)c1c(N)n(C)c(=O)n(C)c1=O | > 66.4
40 | CC(Sc1nccn1C)C(=O)Nc1ccc(C(N)=O)cc1 (stereo unspecified) | > 45.7
41 | Clc1cccc(OCCCCN2CCCCC2)c1 | 31 (≈ 116 µM)
42 | CC(C)(C)c1ccc(Cn2c(=O)cnc3ccccc32)cc1 | 0.4 (≈ 1.37 µM)
43 | COc1cc(C(=O)CSc2nccn2C)cc(OC)c1OC | > 48.4
44 | Cn1c([O-])c(Cc2cccc(Cl)c2Cl)c(=O)n(C)c1=O.[NH4+] | 43.6
45 | CC(=O)c1cccc(NC(=O)CN(C)S(=O)(=O)c2ccccc2)c1 | > 52
46 | O=C1c2cccnc2C(=O)N1c1cccc([N+](=O)[O-])c1 | > 40.4
47 | COc1ccc(C(=O)OCC(=O)NC(=O)NC(C)C)cc1OC | > 48.6
48 | Cc1ccc(CNS(=O)(=O)c2ccc(F)c(F)c2)n1C | > 45
49 | Cc1ccc(-c2nc3ccccn3c2C=O)cc1 | 8.5 (≈ 36 µM)
50 | COc1ccccc1NC(=O)c1ccc2c(c1)C(=O)N(Cc1ccco1)C2=O | < 0.4

Row | SMILES | solubility kinetic [µg/mL]
51 | COc1ccc(S(=O)(=O)N2CCN(C)CC2)cc1 | > 40.6
52 | COc1ccc(CC(=O)OCC(=O)Nc2cccc(Cl)c2)cc1 | 34 (≈ 102 µM)
53 | O=C(COc1ncnc2ccccc12)NCCc1ccc(F)cc1 | 41.9 (≈ 129 µM)
54 | CCN(CC)S(=O)(=O)c1cccc(C(=O)NC(C(=O)NCCc2ccccn2)C(C)C)c1 (stereo unspecified) | > 69.1
55 | COc1cc([N+](=O)[O-])ccc1NC(=O)Nc1ccc2c(c1)OCCO2 | < 0.2
56 | Cc1ccc(OCC(=O)NCCNC(=O)c2ccco2)cc1C | > 47.5
57 | Cc1cc(/C=C2\SC(=S)NC2=O)c(C)n1-c1ccccc1 | 3.3 (≈ 10.5 µM)
58 | O=C1/C(=C/c2cccnc2)SC(=S)N1CCc1ccccc1 | < 0.3
59 | CCN(CC)CCNC(=O)/C(=N\O)c1ccccn1 | > 39.6
60 | Cc1nnc2c(N3CCN(CCO)CC3)nc3ccccc3n12 | > 46.9
61 | CN(C1=NC(=O)CS1)c1ccc(O)cc1 | > 33.3
62 | OC(CN1CCCCC1)c1c[nH]c2ccccc12 (stereo unspecified) | > 36.7
63 | O=C(COc1ccc2c3c(c(=O)oc2c1)CCC3)N1CCCC1 | 15.8 (≈ 50.4 µM)
64 | Cc1cccc(NC(=O)CSc2n[nH]c(-c3cccnc3)n2)c1 | > 48.8
65 | CC(C(=O)Nc1ccc(OCc2ccccc2)cc1)N1CCCC1 (stereo unspecified) | > 48.7
66 | CCOc1ccc(Cl)cc1/C=C1/C(=O)ON=C1C | 29.3 (≈ 110 µM)
67 | CCC(NC(=S)NC1CCCCC1)c1ccc(C)cc1 (stereo unspecified) | 5.3 (≈ 18.2 µM)
68 | CC1=CC(C)(C)NC(=S)N1c1ccc(C)c(C)c1 | 2.1 (≈ 8.06 µM)
69 | CC1CCCC(NC(=O)COC(=O)COc2ccccc2Cl)C1C (stereo unspecified) | 31.1 (≈ 87.9 µM)
70 | CCOC(=O)C1CCCN(C(=O)CSc2nc(C)cc(C)n2)C1 (stereo unspecified) | 41.5 (≈ 123 µM)
71 | Nc1nc(CCOc2ccc(F)cc2)cs1 | 34.3 (≈ 144 µM)
72 | COC(=O)c1cc(NC(=O)c2cccc(F)c2)cc(C(=O)OC)c1 | 0.7 (≈ 2.11 µM)
73 | CCOC(=O)c1ccc(NC(=S)NCc2cccnc2)cc1 | > 47.3
74 | CC(NC(=O)C(Cc1ccccc1)n1cccc1)c1ccccc1 (stereo unspecified) | 11.6 (≈ 36.4 µM)
75 | CCCC(C)NC(=O)CN1C(=O)NC2(CCc3ccccc32)C1=O (stereo unspecified) | > 49.4

Row | SMILES | solubility kinetic [µg/mL]
76 | CCc1c(C#N)c(=O)[nH]c(=O)n1-c1ccccc1 | > 36.2
77 | Cc1cc(C(=O)OCC(=O)NC(C)c2ccccc2)c(C)o1 (stereo unspecified) | 17.7 (≈ 58.7 µM)
78 | CC(=O)Nc1ccc(NC(=O)C(C)OC(=O)C2CCCC2)cc1 (stereo unspecified) | > 47.8
79 | CSc1cccc(NC(=S)Nc2cc(C)ccc2C)c1 | 22.5 (≈ 74.4 µM)
80 | C(=N\N1CCOCC1)/c1ccsc1.O=P(O)(O)O | > 44.1
81 | Cc1ccc(S(=O)(=O)NCCC(=O)NCc2cccnc2)cc1 | > 50
82 | O=C(NCc1cccnc1)C(=O)Nc1ccc2c(c1)OCO2 | 42.7 (≈ 143 µM)
83 | COc1cccc(/C=C/C(=O)c2cccc([N+](=O)[O-])c2)c1 | 2.4 (≈ 8.47 µM)
84 | Cc1ccc(-c2c[nH]c(=S)n2-c2ccccc2F)cc1 | 11.2 (≈ 39.4 µM)
85 | CN(c1ccccc1)c1nc(N)c([N+](=O)[O-])c(Nc2ccccc2F)n1 | < 0.1
86 | CC(=O)Nc1ccc(-n2c(C)ccc2C)cc1 | > 34.2
87 | Fc1ccc(CNc2ncnc3cc(Cl)ccc23)cc1 | 3.5 (≈ 12.2 µM)
88 | Cc1cccc2nc(-c3ccco3)oc(=O)c12 | 21.6 (≈ 95.1 µM)
89 | O=S(=O)(c1cc(F)ccc1F)N1CCN(c2ncnc3ccccc23)CC1 | 56.7 (≈ 145 µM)
90 | O=C(NCc1ccco1)C1CC(c2ccc(Cl)c(Cl)c2)=NO1 (stereo unspecified) | 1.4 (≈ 4.13 µM)
91 | CC1=C(Nc2ccc(C(=O)O)cc2)C(=O)c2ccccc2C1=O | > 46.1
92 | CC(C(=O)Nc1ccccc1)N1C(=O)c2ccccc2C1=O (stereo unspecified) | > 44.1
93 | NC(=O)C1CCN(C(=O)CNC(=O)c2ccccc2)CC1 | > 43.4
94 | CN1CCCN(C(=O)c2cccc(Br)c2)CC1 | 35.4 (≈ 119 µM)
95 | COc1ccccc1NC(=S)NCc1ccccc1 | 14.8 (≈ 54.3 µM)
96 | CCNCC(=O)Nc1c(C)cccc1C | 25.2 (≈ 122 µM)
97 | COc1ccc(NC(=O)CCNC(=O)c2ccco2)cc1OC | 47.3 (≈ 149 µM)
98 | Clc1cc2nc[nH]c2cc1Cl | > 28.1
99 | CCCCn1c(O)c(C(C)=NCc2cccnc2)c(=O)[nH]c1=O | > 47.5
100 | O=C1CNC(=S)N1C(CO)c1ccccc1 (stereo unspecified) | > 35.4

Row | SMILES | solubility kinetic [µg/mL]
101 | COc1ccc(C(=O)NCc2cc(C)nc3ccccc23)cc1OC | 39.6 (≈ 118 µM)
102 | C[C@H](NS(=O)(=O)c1ccccc1F)C(=O)OCC(=O)Nc1ccc2c(c1)OCCO2 | > 65.8
103 | O=C(O)CCn1c(SCCOc2ccccc2F)nc2ccccc21 | > 54.1
104 | CCN(CC(=O)Nc1c(F)cccc1F)C(=O)c1ccc(C#N)cc1 | > 51.5
105 | COc1ccc(S(=O)(=O)Nc2cccnc2)c(C)c1C | 19.8 (≈ 67.7 µM)
106 | CCOC(=O)N1CCN(S(=O)(=O)c2ccc(C)cc2)CC1 | 28.1 (≈ 90 µM)
107 | O=C(Nc1cccc(S(=O)(=O)N2CCCCC2)c1)c1ccccn1 | 5.1 (≈ 14.8 µM)
108 | Cc1ccc(S(=O)(=O)N2CCCC(N3CCOCC3)C2)cc1Cl (stereo unspecified) | > 53.8
109 | Cc1cc(C)nc(SSc2nc(C)cc(C)n2)n1 | 40.6 (≈ 146 µM)
110 | CCCCOc1c(Br)cc(CNCCCN2CCOCC2)cc1OC.Cl | 60.9
111 | O=C(O)/C=C\C(=O)Nc1cc(O)ccc1[N+](=O)[O-] | > 37.8
112 | COc1ccccc1NS(=O)(=O)c1ccc(C(=O)NCc2ccc(S(N)(=O)=O)cc2)cc1 | 20.3 (≈ 42.7 µM)
113 | Cc1ccc(CNC(=O)Nc2ccccc2)c(C)c1 | 0.7 (≈ 2.75 µM)
114 | Cc1cc(C)c(S(=O)(=O)N2CCCC2)c(C)c1 | 30.4 (≈ 120 µM)
115 | c1ccc(CN2CCOCCOCCOCCOCC2)cc1 | 43.2 (≈ 140 µM)
116 | O=C(O)CC1(CC(=O)NCc2ccncc2)CCCCC1 | > 43.6
117 | Cc1ccc(NC(=O)CCSc2nnc(C)o2)cc1 | > 41.6
118 | O=c1oc2ccccc2n1Cc1ccccc1 | 8.6 (≈ 38.2 µM)
119 | Nc1ccc(C(=O)C(=O)c2ccccc2)cc1 | > 33.8
120 | COCCCNC(=O)C(=O)NC1CCCCC1C (stereo unspecified) | > 38.5
121 | O=C1c2ccccc2CN1C(CO)c1ccccc1 (stereo unspecified) | 34.7 (≈ 137 µM)
